Entries after “also recorded” stand apart in the source; their conditions may differ. Where two headings read alike, the source gives them in different places.
What was measured:
guinea pigs = settings: cited from earlier work
5-HT1B receptor = 5-HT1B receptor (Homo sapiens, UniProt P28222); settings: cited from earlier work
C57BL/6NJ mice [1] = test: hypothermia bioassay for blood-brain barrier penetration in mice
Method: (§1) In some embodiments, the hypothermia bioassay described herein is used to determine whether a drug passes the BBB.
(§2) Thus, if mice developed hypothermia following administration of a drug, the drug was determined to cross the blood-brain barrier. […] Both drugs were formulated using 5% Kolliphor® HS-15 and 5% NMP in saline as a vehicle, as using dimethyl sulfoxide (DMSO), a standard solvent, caused hypothermia by itself.
(§3) The temperature of mice was then monitored for 120 minutes following injection.

5-HT1E receptor = 5-HT1E receptor (Homo sapiens, UniProt P28566); settings: cited from earlier work
5-HT2B receptor = 5-HT2B receptor (Homo sapiens, UniProt P41595); settings: cited from earlier work
5-HT1A receptor = target: T1, 5-HT1A receptor (Homo sapiens, UniProt P08908); settings: cited from earlier work
T1 sequence (P08908 1-422): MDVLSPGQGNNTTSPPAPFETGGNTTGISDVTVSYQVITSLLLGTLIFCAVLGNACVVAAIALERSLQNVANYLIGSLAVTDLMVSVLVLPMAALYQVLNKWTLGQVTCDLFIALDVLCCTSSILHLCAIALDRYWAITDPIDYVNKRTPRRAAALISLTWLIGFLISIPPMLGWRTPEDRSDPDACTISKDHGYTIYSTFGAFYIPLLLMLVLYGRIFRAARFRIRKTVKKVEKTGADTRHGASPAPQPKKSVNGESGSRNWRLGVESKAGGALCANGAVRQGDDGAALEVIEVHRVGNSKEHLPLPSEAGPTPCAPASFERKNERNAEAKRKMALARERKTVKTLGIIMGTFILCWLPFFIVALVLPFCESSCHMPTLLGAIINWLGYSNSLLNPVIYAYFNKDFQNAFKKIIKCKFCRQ

5-HT7 receptor = 5-HT7 receptor (Homo sapiens, UniProt P34969); settings: cited from earlier work
5-HT6 receptor = 5-HT6 receptor (Homo sapiens, UniProt P50406); settings: cited from earlier work
5-HT2C receptor = target: T2, 5-HT2C receptor (Homo sapiens, UniProt P28335); settings: cited from earlier work
T2 sequence (P28335 33-458): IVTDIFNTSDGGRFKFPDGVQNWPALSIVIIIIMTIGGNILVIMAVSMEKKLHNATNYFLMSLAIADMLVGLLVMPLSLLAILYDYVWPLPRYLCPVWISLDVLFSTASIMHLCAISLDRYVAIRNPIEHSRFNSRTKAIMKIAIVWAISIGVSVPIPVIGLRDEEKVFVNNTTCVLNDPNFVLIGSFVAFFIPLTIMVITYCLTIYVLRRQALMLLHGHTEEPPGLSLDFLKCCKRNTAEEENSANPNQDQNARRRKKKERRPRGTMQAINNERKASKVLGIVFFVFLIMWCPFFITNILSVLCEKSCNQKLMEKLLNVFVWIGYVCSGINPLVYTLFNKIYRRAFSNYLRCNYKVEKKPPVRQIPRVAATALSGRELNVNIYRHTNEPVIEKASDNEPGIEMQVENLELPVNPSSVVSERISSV

5-HT2A receptor = 5-HT2A receptor (Homo sapiens, UniProt P28223); settings: cited from earlier work
mice addicted to cocaine = test: cocaine intravenous self-administration (IVSA) in cocaine-addicted mice; assay type: in vivo
Method: The efficacy of PNU-109291 treatment in mice addicted to cocaine was tested. Mice first acquired cocaine IVSA at 0.75 mg/kg cocaine per dose at a fixed-ratio-1 reinforcement schedule, then a fixed-ratio-5 schedule until they stabilized their drug-taking behavior. The animals were then injected with descending doses of PNU-109291 prior to IVSA sessions. Doses of PNU-109291 were separated by vehicle injection, and vehicle-first versus agonist-first order was randomized and counterbalanced.

C57BL/6NJ mice [2] = settings: mouse, in vivo, iv, 10 mg/kg
Method: as §1, §2, §3

5-HT7 receptor, sequence (P34969 whole entry): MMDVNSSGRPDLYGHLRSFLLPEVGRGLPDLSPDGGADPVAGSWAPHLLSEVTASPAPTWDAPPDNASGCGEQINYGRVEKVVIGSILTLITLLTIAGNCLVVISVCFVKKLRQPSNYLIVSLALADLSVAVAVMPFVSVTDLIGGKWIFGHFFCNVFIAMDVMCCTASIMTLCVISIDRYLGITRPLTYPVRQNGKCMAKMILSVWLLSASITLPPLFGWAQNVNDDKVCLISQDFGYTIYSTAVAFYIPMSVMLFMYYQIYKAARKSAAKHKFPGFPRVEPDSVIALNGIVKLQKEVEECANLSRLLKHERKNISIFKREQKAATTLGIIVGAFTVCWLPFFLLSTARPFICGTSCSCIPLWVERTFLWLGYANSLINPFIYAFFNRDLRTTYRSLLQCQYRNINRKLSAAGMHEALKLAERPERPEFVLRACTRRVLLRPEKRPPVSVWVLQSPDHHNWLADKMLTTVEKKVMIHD
5-HT2B receptor, sequence (P41595 whole entry): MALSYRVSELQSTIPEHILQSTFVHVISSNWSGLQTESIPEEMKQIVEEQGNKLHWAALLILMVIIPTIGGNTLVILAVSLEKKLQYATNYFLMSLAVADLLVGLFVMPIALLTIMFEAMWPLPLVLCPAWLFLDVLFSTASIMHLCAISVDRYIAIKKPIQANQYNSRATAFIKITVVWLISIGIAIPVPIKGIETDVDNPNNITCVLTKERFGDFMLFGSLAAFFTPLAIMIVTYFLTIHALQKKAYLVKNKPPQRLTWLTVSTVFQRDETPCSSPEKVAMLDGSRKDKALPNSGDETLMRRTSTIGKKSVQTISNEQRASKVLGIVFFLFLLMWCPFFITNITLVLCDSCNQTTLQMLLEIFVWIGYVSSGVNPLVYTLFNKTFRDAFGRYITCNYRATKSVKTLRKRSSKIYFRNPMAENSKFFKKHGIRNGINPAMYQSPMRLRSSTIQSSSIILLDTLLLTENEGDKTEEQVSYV
5-HT2A receptor, sequence (P28223 whole entry): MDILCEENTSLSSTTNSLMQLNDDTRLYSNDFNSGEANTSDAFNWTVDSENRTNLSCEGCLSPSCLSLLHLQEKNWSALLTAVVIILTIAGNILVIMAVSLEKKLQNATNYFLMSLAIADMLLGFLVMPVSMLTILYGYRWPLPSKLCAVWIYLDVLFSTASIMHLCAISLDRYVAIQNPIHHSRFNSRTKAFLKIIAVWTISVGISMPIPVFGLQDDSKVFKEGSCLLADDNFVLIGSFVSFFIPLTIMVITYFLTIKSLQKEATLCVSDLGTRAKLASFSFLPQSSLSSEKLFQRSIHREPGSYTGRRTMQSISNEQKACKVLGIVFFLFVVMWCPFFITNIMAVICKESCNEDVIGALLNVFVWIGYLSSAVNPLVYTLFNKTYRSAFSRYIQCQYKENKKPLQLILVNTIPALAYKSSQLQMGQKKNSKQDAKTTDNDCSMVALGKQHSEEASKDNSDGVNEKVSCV
5-HT1E receptor, sequence (P28566 whole entry): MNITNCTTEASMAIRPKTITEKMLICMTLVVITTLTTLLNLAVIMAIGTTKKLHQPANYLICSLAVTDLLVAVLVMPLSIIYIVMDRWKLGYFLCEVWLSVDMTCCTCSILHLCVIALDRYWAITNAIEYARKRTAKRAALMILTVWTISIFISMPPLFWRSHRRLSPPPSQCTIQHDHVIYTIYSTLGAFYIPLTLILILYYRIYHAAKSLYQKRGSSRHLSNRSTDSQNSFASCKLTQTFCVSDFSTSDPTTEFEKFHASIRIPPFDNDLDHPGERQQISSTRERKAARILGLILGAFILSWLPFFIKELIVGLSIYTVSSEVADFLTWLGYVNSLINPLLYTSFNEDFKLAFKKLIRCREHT
5-HT1B receptor, sequence (P28222 whole entry): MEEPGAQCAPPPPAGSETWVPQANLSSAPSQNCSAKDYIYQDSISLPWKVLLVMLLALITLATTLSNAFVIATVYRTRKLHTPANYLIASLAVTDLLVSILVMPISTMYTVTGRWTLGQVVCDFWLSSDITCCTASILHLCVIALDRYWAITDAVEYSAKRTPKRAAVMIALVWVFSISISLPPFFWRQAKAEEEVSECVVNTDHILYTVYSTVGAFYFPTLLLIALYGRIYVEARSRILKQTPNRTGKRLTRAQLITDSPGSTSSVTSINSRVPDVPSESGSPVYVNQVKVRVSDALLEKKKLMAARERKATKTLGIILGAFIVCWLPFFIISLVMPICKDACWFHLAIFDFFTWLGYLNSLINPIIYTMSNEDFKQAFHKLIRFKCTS
5-HT6 receptor, sequence (P50406 whole entry): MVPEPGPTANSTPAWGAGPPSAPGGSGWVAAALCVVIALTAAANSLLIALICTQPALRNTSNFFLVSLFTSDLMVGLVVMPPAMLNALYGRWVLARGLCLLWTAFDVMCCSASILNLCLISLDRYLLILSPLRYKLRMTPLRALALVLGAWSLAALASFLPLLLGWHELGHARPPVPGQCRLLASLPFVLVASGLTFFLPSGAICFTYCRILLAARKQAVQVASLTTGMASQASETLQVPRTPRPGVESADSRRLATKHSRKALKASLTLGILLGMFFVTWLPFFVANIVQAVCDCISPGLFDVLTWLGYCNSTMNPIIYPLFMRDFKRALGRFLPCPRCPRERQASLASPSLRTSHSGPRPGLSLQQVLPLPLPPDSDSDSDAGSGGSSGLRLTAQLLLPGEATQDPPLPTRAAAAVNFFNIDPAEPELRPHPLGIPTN

CNS(=O)(=O)Cc1ccc2[nH]cc(CCN(C)C)c2c1 [sumatriptan]
central hypothermia (guinea pigs; injected subcutaneously, guinea pigs): does not

COc1ccc(CNC(=O)/C=C/c2ccc3[nH]cc(CCN(C)C)c3c2)cc1 [GR46611]
central hypothermia (guinea pigs; injected directly into the lateral ventricles of guinea pigs): caused central hypothermia

CNC(=O)c1ccc2c(c1)CCO[C@H]2CCN1CCN(c2ccc(OC)cc2)CC1 [PNU-109291, (S)-3,4-Dihydro-1-[2-[4-(4-methoxyphenyl)-1-piperazinyl]ethyl]-N-methyl-1H-2-benzopyran-6-carboxamide]
activity at 5-HT1B receptor (5-HT1B receptor): no activity | central hypothermia (C57BL/6NJ mice [1]; intravenous administration in mice, dose not given): caused central hypothermia at levels comparable to a known BBB-permeable drug | central hypothermia (internal temperature) (C57BL/6NJ mice [1]; intravenous injection, 10 mg/kg, temperature monitored for 120 minutes, vehicle 5% Kolliphor HS-15 and 5% NMP in saline): induced central hypothermia | blood-brain barrier penetration, inferred from hypothermia (C57BL/6NJ mice [1]; intravenous, 10 mg/kg, mice): can bypass the blood-brain barrier; also recorded: penetrates the blood-brain barrier | activity at 5-HT1E receptor (5-HT1E receptor): no activity | activity at 5-HT2B receptor (5-HT2B receptor): no activity | selectivity for 5-HTR1D over 5-HT1A receptor (5-HT1A receptor): > 600 -fold | activity at 5-HT7 receptor (5-HT7 receptor): no activity | activity at 5-HT6 receptor (5-HT6 receptor): no activity | activity at 5-HT2C receptor (5-HT2C receptor): no activity | selectivity for 5-HTR1D over 5-HT2A receptor (5-HT2A receptor): > 600 -fold | volitional cocaine-taking (total infusions of cocaine self-administered) (mice addicted to cocaine; intravenous pre-treatment, 10 mg/kg body weight, before IVSA session): significant dose effect; also recorded: reduced volitional cocaine-taking behavior | inactive lever presses (mice addicted to cocaine; intravenous pre-treatment, range of doses): no differences in inactive lever presses; also recorded: no effect | cocaine self-administration, dose dependence (mice addicted to cocaine; range of doses, cocaine-addicted mice): dose-dependent decrease in cocaine self-administration

CN(C)CCc1c[nH]c2ccc(C[C@H]3COC(=O)N3)cc12 [zolmitriptan]
blood-brain barrier penetration, inferred from hypothermia (C57BL/6NJ mice [2]): can bypass the blood-brain barrier
